From US6737383B1, “Herbicidal oxadiazolidines” (priority 1999, dated 2004)

How the values were obtained:
blackgrass = experiment: Test B pre/postemergence blackgrass; type: in vivo, Alopecurus myosuroides; settings: Preemergence
Summary of the method: (§1)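 Herbicidal effect was estimated by eye on a ten-point control scale after plants spent twelve to sixteen days in a greenhouse following soil or foliar treatment. Foliar sprays targeted plants at one to four leaves; all doses were formulated in a non-phytotoxic solvent with surfactant.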

rape = experiment: Test B pre/postemergence rape; type: in vivo, Brassica napus; settings: Preemergence
Summary of the method: as §1

corn = experiment: Test B pre/postemergence corn; type: in vivo, Zea mays; settings: Preemergence
Summary of the method: as §1

crabgrass = experiment: Test B pre/postemergence crabgrass; type: in vivo, Digitaria sanguinalis; settings: Preemergence
Summary of the method: as §1

giant foxtail = experiment: Test B pre/postemergence giant foxtail; type: in vivo, Setaria faberii; settings: Preemergence
Summary of the method: as §1

wheat = experiment: Test B pre/postemergence wheat; type: in vivo, Triticum aestivum; settings: Preemergence
Summary of the method: as §1

bedstraw = experiment: Test B pre/postemergence bedstraw; type: in vivo, Galium aparine; settings: Preemergence
Summary of the method: as §1

purple nutsedge = experiment: Test B pre/postemergence purple nutsedge; type: in vivo, Cyperus rotundus; settings: Preemergence, scale of 0 to 10 where 0 is no effect and 10 is complete control
Summary of the method: as §1

wild oat = experiment: Test B pre/postemergence wild oat; type: in vivo, Avena fatua; settings: Preemergence
Summary of the method: as §1

velvetleaf = experiment: Test B pre/postemergence velvetleaf; type: in vivo, Abutilon theophrasti; settings: Preemergence
Summary of the method: as §1

pigweed = experiment: Test B pre/postemergence pigweed; type: in vivo, Amaranthus retroflexus; settings: Preemergence
Summary of the method: as §1

sugar beet = experiment: Test B pre/postemergence sugar beet; type: in vivo, Beta vulgaris; settings: Preemergence
Summary of the method: as §1

morningglory = experiment: Test B pre/postemergence morningglory; type: in vivo, Ipomoea hederacea; settings: Preemergence
Summary of the method: as §1

surinam grass = experiment: Test B pre/postemergence surinam grass; type: in vivo, Brachiaria decumbens; settings: Preemergence
Summary of the method: as §1

soybean = experiment: Test B pre/postemergence soybean; type: in vivo, Glycine max; settings: Preemergence
Summary of the method: as §1

cocklebur = experiment: Test B pre/postemergence cocklebur; type: in vivo, Xanthium strumarium; settings: Preemergence
Summary of the method: as §1

[1] = Rate 62 g/ha, scale of 0 to 10 where 0 is no effect and 10 is complete control
[2] = Rate 125 g/ha, scale of 0 to 10 where 0 is no effect and 10 is complete control
[3] = Rate 250 g/ha, scale 0 to 10 (0 no effect, 10 complete control)
[4] = Rate 500 g/ha, scale of 0 to 10 where 0 is no effect and 10 is complete control

CC(C)N(C(=O)n1oc(=O)n(CCF)c1=O)c1ccccc1 [Compound 669]
Blackgrass plant response rating (blackgrass; [1]): 9
Blackgrass plant response rating (blackgrass; [2]): 10
Plant response rating, Blackgrass (blackgrass; [3]): 10
Plant response rating, Blackgrass (blackgrass; [4]): 10
Rape plant response rating (rape; [1]): 2
Rape plant response rating (rape; [2]): 4
Plant response rating, Rape (rape; [3]): 8
Plant response rating, Rape (rape; [4]): 9
Corn plant response rating (corn; [1]): 2
Corn plant response rating (corn; [2]): 9
Plant response rating, Corn (corn; [3]): 9
Plant response rating, Corn (corn; [4]): 9
Crabgrass plant response rating (crabgrass; [1]): 9
Crabgrass plant response rating (crabgrass; [2]): 9
Plant response rating, Crabgrass (crabgrass; [3]): 9
Plant response rating, Crabgrass (crabgrass; [4]): 10
Giant foxtail plant response rating (giant foxtail; [1]): 9
Giant foxtail plant response rating (giant foxtail; [2]): 9
Plant response rating, Giant foxtail (giant foxtail; [3]): 10
Plant response rating, Giant foxtail (giant foxtail; [4]): 10
Wheat plant response rating (wheat; [1]): 6
Wheat plant response rating (wheat; [2]): 5
Plant response rating, Wheat (wheat; [3]): 8
Plant response rating, Wheat (wheat; [4]): 8
Bedstraw plant response rating (bedstraw; [1]): 0
Bedstraw plant response rating (bedstraw; [2]): 7
Plant response rating, Bedstraw (bedstraw; [3]): 9
Plant response rating, Bedstraw (bedstraw; [4]): 9
Nutsedge plant response rating (purple nutsedge; Rate 62 g/ha): 0
Plant response rating, Nutsedge (purple nutsedge; Rate 500 g/ha): 6
Wild oats plant response rating (wild oat; [1]): 10
Wild oats plant response rating (wild oat; [2]): 10
Plant response rating, Wild oats (wild oat; [3]): 10
Plant response rating, Wild oats (wild oat; [4]): 10
Velvetleaf plant response rating (velvetleaf; [1]): 0
Velvetleaf plant response rating (velvetleaf; [2]): 0
Plant response rating, Velvetleaf (velvetleaf; [3]): 0
Plant response rating, Velvetleaf (velvetleaf; [4]): 0
Redroot pigweed plant response rating (pigweed; [1]): 6
Redroot pigweed plant response rating (pigweed; [2]): 10
Plant response rating, Redroot pigweed (pigweed; [3]): 10
Plant response rating, Redroot pigweed (pigweed; [4]): 10
Sugarbeets plant response rating (sugar beet; [1]): 6
Sugarbeets plant response rating (sugar beet; [2]): 8
Plant response rating, Sugarbeets (sugar beet; [3]): 8
Plant response rating, Sugarbeets (sugar beet; [4]): 9
Morningglory plant response rating (morningglory; [1]): 0
Morningglory plant response rating (morningglory; [2]): 0
Plant response rating, Morningglory (morningglory; [3]): 0
Plant response rating, Morningglory (morningglory; [4]): 0
B. signalgrass plant response rating (surinam grass; [1]): 8
B. signalgrass plant response rating (surinam grass; [2]): 8
Plant response rating, B. signalgrass (surinam grass; [3]): 10
Plant response rating, B. signalgrass (surinam grass; [4]): 10
Soybean plant response rating (soybean; [1]): 0
Soybean plant response rating (soybean; [2]): 2
Plant response rating, Soybean (soybean; [3]): 3
Plant response rating, Soybean (soybean; [4]): 6
Cocklebur plant response rating (cocklebur; [1]): 0
Cocklebur plant response rating (cocklebur; [2]): 0
Plant response rating, Cocklebur (cocklebur; [3]): 0
Plant response rating, Cocklebur (cocklebur; [4]): 0
